Experimental data reported in patent US12484583B2 (priority 2019, dated 2025).

Assays:
Fusarium culmorum = conditions: in vivo
Rhizoctonia = conditions: in vivo

Compound	fungicidal activity of the insecticide by itself (Fusarium culmorum)	stimulation of the fungicidal action of natamycin (Fusarium culmorum)	fungicidal activity of the insecticide by itself (Rhizoctonia)	stimulation of the fungicidal action of natamycin (Rhizoctonia)
O=[N+]([O-])NC1=NCCN1Cc1ccc(Cl)nc1 [Imidacloprid, N-[1-[(6-chloropyridin-3-yl)methyl]-4,5-dihydroimidazol-2-yl]nitramide]	does not have fungicidal activity by itself	stimulates the fungicidal action of natamycin on seeds of different plants		
abamectin			does not have fungicidal by itself	stimulates the fungicidal action of natamycin against different fungal pathogens on seeds
